# What was measured:
# mutant Mtb strain IAR2 = assay type: cell-based, Mycobacterium tuberculosis
# Mtb KZN494 = experiment: microbe, parasite or virus in culture; assay type: cell-based; conditions: Mycobacterium tuberculosis, KZN494, read-out: Mtb MIC KZN494/ MDR
# Mtb TF274 = experiment: microbe, parasite or virus in culture; assay type: cell-based; conditions: Mycobacterium tuberculosis, TF274, read-out: Mtb MIC TF274/ XDR
structure (smiles),measurement,setting,value
"c1ccc(-c2ccc(-c3ccnc(CN4CCC5(CCCC5)CC4)c3)cc2)cc1 [Compound 62, 8-((4-([1,1'-Biphenyl]-4-yl)pyridin-2-yl)methyl)-8-azaspiro[4.5]decane]",MIC IAR2,mutant Mtb strain IAR2,1 µg/mL
same,MIC,Mtb KZN494,0.0156 to 0.0313 µg/mL
same,MIC,Mtb TF274,0.0039 µg/mL
